Target: T1, influenza A virus (IAV) PA-Nter fragment (amino acids 1-209) (Influenza A virus, UniProt P31343)
T1 construct: PA-Nter fragment (amino acids 1-209); made in house
Experiment: FRET endonuclease activity assay
Type: biochemical
Details: not given

Compound | FRET (result in words)
CCOC(=O)c1cn(Cc2ccccc2-c2ccccc2)c2sc(SC)nc2c1=O | inactive

Same assay, conditions: from initial reaction velocities (v0) of RNA substrate cleavage

Compound | IC50
CSC1=NC2C(=O)C(C(=O)O)=CN(Cc3ccccc3-c3ccccc3)C2S1 (centres unmarked) | 12 µM
O=C(O)c1cn(Cc2ccccc2-c2ccccc2)c2sc(NC3CCCC3)nc2c1=O | 5.5 µM
N#Cc1ccc(S(=O)(=O)Nc2nc3c(=O)c(C(=O)O)cn(Cc4ccccc4-c4ccccc4)c3s2)cc1 | 2.2 µM

Tested on: MDCK cells
Experiment: Cytotoxicity in uninfected treated cells (CellTiter-Glo) within the CPE assay
Type: cell-based, canine
Details: at 50 μM
Experimental: After removal of the culture medium and one washing step with PBS, virus and compound were added together to the cells. In the wells used for cytotoxicity determination (i.e. in the absence of viral infection), no virus suspension was added. Instead, infection medium was added. Each treatment was conducted in two replicates. After incubation at 37° C., 5% CO2 for 48 hrs, each well was observed microscopically for apparent cytotoxicity, precipitate formation, or other notable abnormalities. Then, cell viability was determined using CellTiter-Glo luminescent cell viability assay (Promega). The supernatant was removed carefully and 65 μl of the reconstituted reagent were added to each well and incubated with gentle shaking for 15 min at room temperature. Then, 60 μl of the solution was transferred to an opaque plate and luminescence (RLU) was measured using Synergy HT plate reader (Biotek).
Relative cell viability values of uninfected-treated versus uninfected-untreated cells were used to evaluate cytotoxicity of the compounds. Substances with a relative viability below 80% at the tested concentration were regarded as cytotoxic and retested at lower concentrations.

Compound | Cytotoxicity (relative viability below 80% regarded as cytotoxic)
CSC1=NC2C(=O)C(C(=O)O)=CN(Cc3ccccc3-c3ccccc3)C2S1 (centres unmarked) | Toxic
O=C(O)c1cn(Cc2ccccc2-c2ccccc2)c2sc(NC3CCCC3)nc2c1=O | toxic

Tested on: influenza A virus (IAV) A/Aichi/2/68 (H3N2)
Experiment: Cytopathic effect (CPE) assay
Type: cell-based
Details: @ 50 μM, MDCK cells, 48 hrs, read-out: CPE % reduction

Compound | inhibition at 50 µM
O=C(O)c1cn(Cc2ccccc2-c2ccccc2)c2nc(NC3CCCC3)sc2c1=O | 70%
O=C(O)c1cn(Cc2ccccc2-c2ccccc2)c2nc(NCc3ccccc3)sc2c1=O | 68%
O=C(O)c1cn(Cc2ccccc2-c2ccccc2)c2sc(N3CCCCC3)nc2c1=O | 83%
CNC(=O)c1cn(Cc2ccccc2-c2ccccc2)c2sc(NCc3ccccc3)nc2c1=O | 41%
O=C(O)c1cn(Cc2ccccc2-c2ccc(Cl)cc2)c2sc(O)nc2c1=O | 63%
COc1ccc(S(=O)(=O)Nc2nc3c(=O)c(C(=O)O)cn(Cc4ccc(Cl)cc4-c4ccccc4)c3s2)cc1 | 67%
CCOC(=O)c1cn(Cc2ccccc2-c2ccccc2)c2sc(SC)nc2c1=O | 35%
Cc1[nH]c2ncnn2c(=O)c1CC(=O)O | 28%
Nc1cc2n(C(=O)C3(c4ccccc4)CCCC3)cc(C(=O)O)c(=O)n2n1 [drawing 237] | 18%

Same assay, conditions: MDCK cells, 48 hrs

Compound | IC50
N#Cc1ccc(S(=O)(=O)Nc2nc3c(=O)c(C(=O)O)cn(Cc4ccccc4-c4ccccc4)c3s2)cc1 | 18 µM

Tested on: not given
Experiment: not given
Details: not given

Compound | melting point
O=C(O)c1cn(Cc2ccccc2)c2cc(C3CC3)nn2c1=O | 210 to 215 °C
O=C(O)c1cn(CCc2ccc(O)cc2)c2cc(C3CC3)nn2c1=O | 265 to 270 °C
O=C(O)c1cn(CCc2ccc(Cl)cc2)c2cc(C3CC3)nn2c1=O | 220 to 225 °C
COc1ccc(CCn2cc(C(=O)O)c(=O)n3nc(C4CC4)cc23)cc1 | 145 to 150 °C
O=C(O)c1cn(CCc2ccc(C(F)(F)F)cc2)c2cc(C3CC3)nn2c1=O | 225 to 230 °C
O=C(O)c1cn(CCc2cccc(Cl)c2)c2cc(C3CC3)nn2c1=O | 230 to 235 °C
O=C(O)c1cn(CCc2cccc(F)c2)c2cc(C3CC3)nn2c1=O | 220 to 225 °C
O=C(O)c1cn(CCc2cccc(C(F)(F)F)c2)c2cc(C3CC3)nn2c1=O | 200 to 205 °C
O=C(O)c1cn(CCCc2ccccc2)c2cc(C3CC3)nn2c1=O | 95 to 100 °C
CC(C)c1cc2n(CCc3ccccc3)cc(C(=O)O)c(=O)n2n1 | 220 to 225 °C
O=C(O)c1cn(Cc2ccccc2)c2cc(C3CCCC3)nn2c1=O | 213 to 215 °C
O=C(O)c1cn(CCc2ccccc2)c2cc(C3CCCC3)nn2c1=O | 198 to 200 °C
O=C(O)Cc1c[nH]c2cc(C(F)(F)F)nn2c1=O | 320 to 324 °C
O=C(NCCc1ccc(Cl)cc1)c1cc2[nH]cc(C(=O)O)c(=O)n2n1 | > 300 °C
CCOC(=O)c1c[nH]c2nc(NCc3ccccc3)nn2c1=O | 275 to 278 °C
CCOC(=O)c1c[nH]c2nc(NCc3cccc4ccccc34)nn2c1=O | 273 to 275 °C
CCOC(=O)c1c[nH]c2nc(Nc3ccc(NC(C)=O)cc3)nn2c1=O | > 330 °C
CCOC(=O)c1c[nH]c2nc(Nc3ccc(C)c(Cl)c3)nn2c1=O | > 340 °C
CCOC(=O)Cc1c[nH]c2nc(Nc3ccc(OC(C)C)cc3)nn2c1=O | 235 to 240 °C
CCOC(=O)c1c[nH]c2c(C#N)c(CCCNC)nn2c1=O | 285 to 287 °C

Compound | melting point
O=C(O)c1c[nH]c2cc(C3CC3)nn2c1=O | 275 to 278 °C
O=C(O)c1c[nH]c2cc(C(F)(F)F)nn2c1=O | > 340 °C
CCOC(=O)c1cn(Cc2ccccc2)c2cc(C3CC3)nn2c1=O | 160 to 165 °C
CCOC(=O)c1cn(CCc2ccccc2)c2cc(C3CC3)nn2c1=O | 155 to 160 °C
CCOC(=O)c1cn(CCc2ccc(O)cc2)c2cc(C3CC3)nn2c1=O | 95 to 100 °C
CCOC(=O)c1cn(CCc2ccc(Cl)cc2)c2cc(C3CC3)nn2c1=O | 190 to 195 °C
CCOC(=O)c1cn(CCc2ccc(OC)cc2)c2cc(C3CC3)nn2c1=O | 160 to 165 °C
CCOC(=O)c1cn(CCc2cccc(Cl)c2)c2cc(C3CC3)nn2c1=O | 160 to 165 °C
CCOC(=O)c1cn(CCc2cccc(F)c2)c2cc(C3CC3)nn2c1=O | 160 to 165 °C
CCOC(=O)c1cn(CCc2cccc(C(F)(F)F)c2)c2cc(C3CC3)nn2c1=O | 140 to 145 °C
CCOC(=O)c1cn(CCCc2ccccc2)c2cc(C3CC3)nn2c1=O | 150 to 155 °C
CCOC(=O)c1cn(Cc2ccccc2)c2cc(C(C)C)nn2c1=O | 135 to 140 °C
CCOC(=O)c1cn(CCc2ccccc2)c2cc(C(C)C)nn2c1=O | 130 to 135 °C
CCOC(=O)c1cn(Cc2ccccc2)c2cc(C3CCCC3)nn2c1=O | 148 to 150 °C
CCOC(=O)c1cn(CCc2ccccc2)c2cc(C3CCCC3)nn2c1=O | 162 to 164 °C
CCOC(=O)Cc1c[nH]c2cc(-c3ccccc3)nn2c1=O | 245 to 250 °C
CCOC(=O)Cc1c[nH]c2cc(C(F)(F)F)nn2c1=O | 290 to 293 °C
CCOC(=O)Cc1cn(C)c2cc(C3CC3)nn2c1=O | 147 to 150 °C
CCOC(=O)c1c[nH]c2cc(C(=O)NC3CCN(Cc4ccccc4)CC3)nn2c1=O | 264 to 266 °C
O=C(O)c1c[nH]c2nc(NCc3ccccc3)nn2c1=O | 240 to 245 °C

Reference: US9434745B2, “7-oxo-thiazolopyridine carbonic acid derivatives and their use in the treatment, amelioration or prevention of a viral disease” (Savira Pharmaceuticals GmbH, priority 2012, dated 2016)
